The assay has as its target DNA methyltransferase 1 (DNMT1) (Homo sapiens, UniProt P26358). The assay can be described thus: in vitro DNMT activity/inhibition assay (Active Motif), […] ng purified DNMT1, colorimetric; […] compound. Type of assay: biochemical.

Inhibition data for one compound are collected here from article PMC6316187, “Synergistic AML Cell Death Induction by Marine Cytotoxin (+)-1(R), 6(S), 1’(R), 6’(S), 11(R), 17(S)-Fistularin-3 and Bcl-2 Inhibitor Venetoclax” (Marine Drugs, 2018).

Chain of DNA methyltransferase 1 (DNMT1) (P26358 whole entry): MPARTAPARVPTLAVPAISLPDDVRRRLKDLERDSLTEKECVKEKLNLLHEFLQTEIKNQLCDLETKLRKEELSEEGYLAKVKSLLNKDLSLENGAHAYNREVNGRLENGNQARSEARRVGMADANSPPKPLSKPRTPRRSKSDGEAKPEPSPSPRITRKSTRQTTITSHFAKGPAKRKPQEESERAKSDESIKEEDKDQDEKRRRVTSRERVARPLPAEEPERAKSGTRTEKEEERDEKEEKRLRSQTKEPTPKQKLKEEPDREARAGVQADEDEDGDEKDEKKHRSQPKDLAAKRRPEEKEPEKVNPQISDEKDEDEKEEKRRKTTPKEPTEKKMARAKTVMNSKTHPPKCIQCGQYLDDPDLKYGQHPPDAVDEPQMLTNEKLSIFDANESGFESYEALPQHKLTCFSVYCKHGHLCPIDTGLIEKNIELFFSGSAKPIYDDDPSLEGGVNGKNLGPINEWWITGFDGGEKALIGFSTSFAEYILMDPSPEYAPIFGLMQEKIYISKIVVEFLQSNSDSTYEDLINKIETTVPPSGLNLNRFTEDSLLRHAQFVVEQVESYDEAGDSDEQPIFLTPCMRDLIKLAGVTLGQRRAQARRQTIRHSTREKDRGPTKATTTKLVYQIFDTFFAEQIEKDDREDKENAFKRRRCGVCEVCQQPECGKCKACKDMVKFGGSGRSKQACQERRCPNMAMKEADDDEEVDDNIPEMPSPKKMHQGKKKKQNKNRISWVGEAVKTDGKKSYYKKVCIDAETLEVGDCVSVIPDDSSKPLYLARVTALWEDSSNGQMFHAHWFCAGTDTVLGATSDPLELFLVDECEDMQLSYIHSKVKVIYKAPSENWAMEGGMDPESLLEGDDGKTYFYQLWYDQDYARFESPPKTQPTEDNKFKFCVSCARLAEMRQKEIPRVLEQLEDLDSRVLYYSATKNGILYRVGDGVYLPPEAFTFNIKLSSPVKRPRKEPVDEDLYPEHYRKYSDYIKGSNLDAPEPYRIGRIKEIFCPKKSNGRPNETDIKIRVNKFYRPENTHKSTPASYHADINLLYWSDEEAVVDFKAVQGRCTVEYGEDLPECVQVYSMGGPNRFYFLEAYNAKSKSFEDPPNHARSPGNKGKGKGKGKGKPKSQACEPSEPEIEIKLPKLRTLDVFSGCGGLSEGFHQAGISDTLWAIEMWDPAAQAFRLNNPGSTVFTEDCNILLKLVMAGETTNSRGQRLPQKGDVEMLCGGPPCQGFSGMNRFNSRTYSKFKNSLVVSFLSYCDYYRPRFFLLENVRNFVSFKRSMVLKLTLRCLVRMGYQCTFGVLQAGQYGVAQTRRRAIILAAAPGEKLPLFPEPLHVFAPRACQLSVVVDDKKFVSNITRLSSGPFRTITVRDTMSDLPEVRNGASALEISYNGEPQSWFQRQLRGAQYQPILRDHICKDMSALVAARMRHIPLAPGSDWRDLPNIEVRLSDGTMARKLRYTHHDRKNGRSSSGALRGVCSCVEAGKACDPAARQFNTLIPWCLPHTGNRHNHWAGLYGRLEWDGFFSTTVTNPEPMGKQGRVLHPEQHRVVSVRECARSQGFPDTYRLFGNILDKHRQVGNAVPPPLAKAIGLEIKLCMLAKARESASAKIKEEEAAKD

As a reminder, the inhibition is how much of the control response was suppressed. A low value points to a response near the control. In turn, `COC1=C(Br)[C@H](O)[C@@]2(C=C1Br)CC(C(=O)NC[C@@H](O)COc1c(Br)cc([C@H](O)CNC(=O)C3=NO[C@]4(C=C(Br)C(OC)=C(Br)[C@@H]4O)C3)cc1Br)=NO2` [RS-F3, (+)-11(R), 17(S)-fistularin-3] showed an inhibition at 50 µM of approximately 25%.
